Tests used:
[1] = target: T1, Ephrin type-B receptor 2 (Homo sapiens) (UniProt P29323); assay: Inhibition of EPHB2 (unknown origin) assessed as residual activity at 1000 nM by KINOMEscan analysis relative to control
T1 sequence (whole entry): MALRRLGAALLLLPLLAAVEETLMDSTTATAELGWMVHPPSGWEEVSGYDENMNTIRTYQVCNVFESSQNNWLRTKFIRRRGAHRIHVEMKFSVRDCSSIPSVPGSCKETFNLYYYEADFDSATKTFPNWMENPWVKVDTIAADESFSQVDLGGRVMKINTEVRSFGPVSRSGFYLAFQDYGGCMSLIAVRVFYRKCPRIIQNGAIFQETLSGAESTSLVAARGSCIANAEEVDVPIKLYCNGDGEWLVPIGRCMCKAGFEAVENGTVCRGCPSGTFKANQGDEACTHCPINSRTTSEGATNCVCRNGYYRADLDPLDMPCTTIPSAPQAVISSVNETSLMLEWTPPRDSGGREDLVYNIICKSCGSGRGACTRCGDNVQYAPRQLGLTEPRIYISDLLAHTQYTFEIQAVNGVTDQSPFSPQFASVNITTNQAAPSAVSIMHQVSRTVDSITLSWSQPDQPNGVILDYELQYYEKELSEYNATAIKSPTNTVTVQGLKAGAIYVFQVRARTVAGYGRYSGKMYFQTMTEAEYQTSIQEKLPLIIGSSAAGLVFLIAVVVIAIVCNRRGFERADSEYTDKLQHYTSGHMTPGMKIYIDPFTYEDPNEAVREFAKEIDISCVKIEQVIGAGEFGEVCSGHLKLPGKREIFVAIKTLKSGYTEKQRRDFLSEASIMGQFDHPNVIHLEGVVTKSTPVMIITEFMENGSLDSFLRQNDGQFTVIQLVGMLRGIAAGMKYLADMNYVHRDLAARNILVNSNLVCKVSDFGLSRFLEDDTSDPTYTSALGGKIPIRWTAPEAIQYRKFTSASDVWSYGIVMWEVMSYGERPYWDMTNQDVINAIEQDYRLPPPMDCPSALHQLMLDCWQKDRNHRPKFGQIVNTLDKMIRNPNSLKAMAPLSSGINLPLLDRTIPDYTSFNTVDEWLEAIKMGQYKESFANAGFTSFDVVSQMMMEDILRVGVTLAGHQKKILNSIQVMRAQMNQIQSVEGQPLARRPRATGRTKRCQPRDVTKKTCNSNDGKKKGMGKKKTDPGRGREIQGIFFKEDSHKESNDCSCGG

[2] = target: Receptor tyrosine-protein kinase erbB-2 (Homo sapiens) (UniProt P04626); assay: Inhibition of ERBB2 (unknown origin) assessed as residual activity at 1000 nM by KINOMEscan analysis relative to control
[3] = target: T2, Ephrin type-A receptor 8 (Homo sapiens) (UniProt P29322); assay: Inhibition of EPHA8 (unknown origin) assessed as residual activity at 1000 nM by KINOMEscan analysis relative to control
T2 sequence (whole entry): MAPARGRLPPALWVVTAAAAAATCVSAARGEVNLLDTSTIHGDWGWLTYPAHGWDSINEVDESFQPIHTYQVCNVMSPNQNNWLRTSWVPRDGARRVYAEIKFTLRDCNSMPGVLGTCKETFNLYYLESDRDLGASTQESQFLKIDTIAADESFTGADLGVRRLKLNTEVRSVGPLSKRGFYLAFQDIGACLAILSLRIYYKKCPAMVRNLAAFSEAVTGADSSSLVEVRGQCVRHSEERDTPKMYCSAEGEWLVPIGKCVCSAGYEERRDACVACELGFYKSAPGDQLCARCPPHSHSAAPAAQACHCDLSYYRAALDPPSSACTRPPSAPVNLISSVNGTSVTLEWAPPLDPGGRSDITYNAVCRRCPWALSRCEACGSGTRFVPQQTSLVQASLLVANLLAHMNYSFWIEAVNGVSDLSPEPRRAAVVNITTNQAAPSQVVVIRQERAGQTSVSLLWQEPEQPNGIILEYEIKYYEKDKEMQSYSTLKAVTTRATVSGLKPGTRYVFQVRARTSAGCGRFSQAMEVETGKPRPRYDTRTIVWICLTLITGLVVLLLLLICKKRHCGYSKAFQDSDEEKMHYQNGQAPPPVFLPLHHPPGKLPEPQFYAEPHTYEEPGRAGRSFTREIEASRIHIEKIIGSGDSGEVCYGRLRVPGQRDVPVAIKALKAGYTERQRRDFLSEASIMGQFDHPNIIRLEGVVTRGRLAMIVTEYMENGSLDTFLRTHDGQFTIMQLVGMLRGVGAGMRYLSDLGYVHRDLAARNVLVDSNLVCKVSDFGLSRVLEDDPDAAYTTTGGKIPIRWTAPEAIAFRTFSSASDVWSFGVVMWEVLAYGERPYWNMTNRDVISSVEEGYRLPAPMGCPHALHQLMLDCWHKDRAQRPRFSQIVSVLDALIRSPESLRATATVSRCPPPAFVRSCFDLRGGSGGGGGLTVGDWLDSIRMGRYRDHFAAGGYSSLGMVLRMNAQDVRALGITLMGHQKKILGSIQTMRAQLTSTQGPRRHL

[4] = target: Serine/threonine-protein kinase PRP4 homolog (Homo sapiens) (UniProt Q13523); assay: Inhibition of PRP4 (unknown origin) assessed as residual activity at 1000 nM by KINOMEscan analysis relative to control
[5] = system: Phosphatidylinositol 4,5-bisphosphate 3-kinase catalytic subunit alpha isoform (Homo sapiens), P42336 [M1043I]; assay: Inhibition of PIK3CA M1043I mutant (unknown origin) assessed as residual activity at 1000 nM by KINOMEscan analysis relative to control
[6] = target: Macrophage colony-stimulating factor 1 receptor (Homo sapiens) (UniProt P07333); assay: Inhibition of autoinhibited CSF1R (unknown origin) assessed as residual activity at 1000 nM by KINOMEscan analysis relative to control
[7] = target: Cyclin-dependent kinase 16 (Homo sapiens) (UniProt Q00536); assay: Inhibition of PCTK1 (unknown origin) assessed as residual activity at 1000 nM by KINOMEscan analysis relative to control
[8] = target: Calcium/calmodulin-dependent protein kinase kinase 2 (Homo sapiens) (UniProt Q96RR4); assay: Inhibition of CAMKK2 (unknown origin) assessed as residual activity at 1000 nM by KINOMEscan analysis relative to control
[9] = target: Proto-oncogene tyrosine-protein kinase Src (Homo sapiens) (UniProt P12931); assay: Inhibition of SRC (unknown origin) assessed as residual activity at 1000 nM by KINOMEscan analysis relative to control
[10] = target: MAP kinase-activated protein kinase 2 (Homo sapiens) (UniProt P49137); assay: Inhibition of MAPKAPK2 (unknown origin) assessed as residual activity at 1000 nM by KINOMEscan analysis relative to control
[11] = target: Ephrin type-A receptor 5 (Homo sapiens) (UniProt P54756); assay: Inhibition of EPHA5 (unknown origin) assessed as residual activity at 1000 nM by KINOMEscan analysis relative to control
Sequence of Ephrin type-A receptor 5 (Homo sapiens) (P54756 whole entry): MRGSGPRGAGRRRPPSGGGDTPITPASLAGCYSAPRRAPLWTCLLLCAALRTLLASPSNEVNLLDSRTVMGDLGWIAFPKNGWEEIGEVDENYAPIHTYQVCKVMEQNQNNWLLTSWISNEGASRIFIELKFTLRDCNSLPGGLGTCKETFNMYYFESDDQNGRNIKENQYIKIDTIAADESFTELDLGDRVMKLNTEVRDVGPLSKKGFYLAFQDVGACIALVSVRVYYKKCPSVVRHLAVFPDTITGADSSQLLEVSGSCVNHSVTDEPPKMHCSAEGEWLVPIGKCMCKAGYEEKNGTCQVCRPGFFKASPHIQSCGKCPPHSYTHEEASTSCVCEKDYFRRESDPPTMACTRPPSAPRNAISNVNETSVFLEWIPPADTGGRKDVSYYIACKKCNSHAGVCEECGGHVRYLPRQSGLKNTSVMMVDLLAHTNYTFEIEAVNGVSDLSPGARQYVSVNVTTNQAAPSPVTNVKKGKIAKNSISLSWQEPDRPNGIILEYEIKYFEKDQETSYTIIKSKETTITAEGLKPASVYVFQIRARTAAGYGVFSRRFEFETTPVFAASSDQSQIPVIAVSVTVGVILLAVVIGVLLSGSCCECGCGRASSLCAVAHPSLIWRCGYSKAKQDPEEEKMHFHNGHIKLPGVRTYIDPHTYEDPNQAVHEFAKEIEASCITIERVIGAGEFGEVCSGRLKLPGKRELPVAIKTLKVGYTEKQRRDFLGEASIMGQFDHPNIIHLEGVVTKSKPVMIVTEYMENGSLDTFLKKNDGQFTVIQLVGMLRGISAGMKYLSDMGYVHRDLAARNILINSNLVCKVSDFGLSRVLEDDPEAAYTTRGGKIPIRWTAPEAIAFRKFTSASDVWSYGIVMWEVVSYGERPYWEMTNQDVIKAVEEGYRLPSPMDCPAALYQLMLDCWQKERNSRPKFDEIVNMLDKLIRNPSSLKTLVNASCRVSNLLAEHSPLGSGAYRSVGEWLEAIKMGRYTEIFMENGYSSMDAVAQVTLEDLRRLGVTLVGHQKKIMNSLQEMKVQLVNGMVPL

Sequence of MAP kinase-activated protein kinase 2 (Homo sapiens) (P49137 whole entry, looked up): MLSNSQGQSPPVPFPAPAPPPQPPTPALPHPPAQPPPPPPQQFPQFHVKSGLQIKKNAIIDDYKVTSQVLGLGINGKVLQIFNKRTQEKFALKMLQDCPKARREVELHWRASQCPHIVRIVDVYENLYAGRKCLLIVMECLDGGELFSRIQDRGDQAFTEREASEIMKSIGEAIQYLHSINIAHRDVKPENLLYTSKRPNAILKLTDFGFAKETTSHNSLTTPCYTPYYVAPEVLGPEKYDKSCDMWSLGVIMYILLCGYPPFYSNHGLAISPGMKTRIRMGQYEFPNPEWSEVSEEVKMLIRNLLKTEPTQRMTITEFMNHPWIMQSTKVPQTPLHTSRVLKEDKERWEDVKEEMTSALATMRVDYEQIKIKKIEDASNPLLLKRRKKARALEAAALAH
Sequence of Serine/threonine-protein kinase PRP4 homolog (Homo sapiens) (Q13523 whole entry, canonical isoform): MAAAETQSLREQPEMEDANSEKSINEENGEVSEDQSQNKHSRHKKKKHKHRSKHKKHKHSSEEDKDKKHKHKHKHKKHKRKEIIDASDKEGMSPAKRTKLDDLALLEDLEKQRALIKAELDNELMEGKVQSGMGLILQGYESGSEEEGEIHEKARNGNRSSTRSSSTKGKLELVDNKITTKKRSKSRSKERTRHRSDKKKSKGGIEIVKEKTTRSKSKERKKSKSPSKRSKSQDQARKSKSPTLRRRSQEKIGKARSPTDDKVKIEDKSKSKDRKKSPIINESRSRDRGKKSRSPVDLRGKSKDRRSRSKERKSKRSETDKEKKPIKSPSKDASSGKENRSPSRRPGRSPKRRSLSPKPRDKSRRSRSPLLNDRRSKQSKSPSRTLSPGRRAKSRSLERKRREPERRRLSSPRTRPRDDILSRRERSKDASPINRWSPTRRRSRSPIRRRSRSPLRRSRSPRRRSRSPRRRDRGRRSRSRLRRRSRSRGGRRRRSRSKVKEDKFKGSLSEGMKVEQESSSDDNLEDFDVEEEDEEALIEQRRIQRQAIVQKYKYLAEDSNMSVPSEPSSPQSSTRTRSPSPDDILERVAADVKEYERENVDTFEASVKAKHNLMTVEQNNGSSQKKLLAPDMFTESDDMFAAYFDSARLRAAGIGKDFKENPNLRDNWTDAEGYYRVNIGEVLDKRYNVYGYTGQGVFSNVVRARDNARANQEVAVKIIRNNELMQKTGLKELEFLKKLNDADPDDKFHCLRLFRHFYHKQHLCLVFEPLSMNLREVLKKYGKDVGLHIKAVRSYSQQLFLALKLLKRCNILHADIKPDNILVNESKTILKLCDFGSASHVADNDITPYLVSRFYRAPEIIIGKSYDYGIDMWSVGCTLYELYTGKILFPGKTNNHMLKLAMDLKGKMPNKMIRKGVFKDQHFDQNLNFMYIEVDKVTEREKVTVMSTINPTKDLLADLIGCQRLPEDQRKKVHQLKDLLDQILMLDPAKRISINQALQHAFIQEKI
Sequence of Receptor tyrosine-protein kinase erbB-2 (Homo sapiens) (P04626 whole entry): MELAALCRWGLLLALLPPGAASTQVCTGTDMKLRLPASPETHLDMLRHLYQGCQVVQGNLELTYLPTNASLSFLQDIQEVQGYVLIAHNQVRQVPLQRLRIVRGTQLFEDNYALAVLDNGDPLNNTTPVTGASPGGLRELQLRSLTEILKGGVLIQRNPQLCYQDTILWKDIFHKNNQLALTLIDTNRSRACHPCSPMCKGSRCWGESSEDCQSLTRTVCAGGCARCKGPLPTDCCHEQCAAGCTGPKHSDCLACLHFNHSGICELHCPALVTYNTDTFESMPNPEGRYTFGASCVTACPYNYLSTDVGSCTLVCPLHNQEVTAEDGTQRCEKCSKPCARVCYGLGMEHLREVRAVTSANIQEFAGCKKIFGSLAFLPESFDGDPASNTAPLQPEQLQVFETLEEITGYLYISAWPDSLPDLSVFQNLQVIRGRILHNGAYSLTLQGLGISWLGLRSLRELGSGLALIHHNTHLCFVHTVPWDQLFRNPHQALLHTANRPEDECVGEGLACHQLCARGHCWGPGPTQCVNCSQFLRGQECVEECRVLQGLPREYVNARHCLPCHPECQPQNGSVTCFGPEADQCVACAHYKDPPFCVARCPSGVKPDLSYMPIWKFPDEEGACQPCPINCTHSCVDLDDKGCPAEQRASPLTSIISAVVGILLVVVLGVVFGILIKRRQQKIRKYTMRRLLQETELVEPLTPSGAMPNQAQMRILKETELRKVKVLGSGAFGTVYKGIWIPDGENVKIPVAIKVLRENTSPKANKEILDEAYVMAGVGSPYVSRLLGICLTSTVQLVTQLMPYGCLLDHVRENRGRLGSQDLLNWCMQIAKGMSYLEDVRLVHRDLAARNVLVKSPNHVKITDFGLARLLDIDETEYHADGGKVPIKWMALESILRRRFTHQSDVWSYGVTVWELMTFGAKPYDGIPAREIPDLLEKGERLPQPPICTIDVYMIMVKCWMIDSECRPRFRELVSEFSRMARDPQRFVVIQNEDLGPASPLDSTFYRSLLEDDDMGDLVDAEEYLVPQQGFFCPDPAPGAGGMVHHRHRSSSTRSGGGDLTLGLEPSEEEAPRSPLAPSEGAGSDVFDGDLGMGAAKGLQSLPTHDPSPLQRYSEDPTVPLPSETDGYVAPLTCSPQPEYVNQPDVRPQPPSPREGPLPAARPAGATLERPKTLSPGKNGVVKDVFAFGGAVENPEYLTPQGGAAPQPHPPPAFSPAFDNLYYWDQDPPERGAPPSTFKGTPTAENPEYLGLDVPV
Sequence of Proto-oncogene tyrosine-protein kinase Src (Homo sapiens) (P12931 2-536 limits assumed): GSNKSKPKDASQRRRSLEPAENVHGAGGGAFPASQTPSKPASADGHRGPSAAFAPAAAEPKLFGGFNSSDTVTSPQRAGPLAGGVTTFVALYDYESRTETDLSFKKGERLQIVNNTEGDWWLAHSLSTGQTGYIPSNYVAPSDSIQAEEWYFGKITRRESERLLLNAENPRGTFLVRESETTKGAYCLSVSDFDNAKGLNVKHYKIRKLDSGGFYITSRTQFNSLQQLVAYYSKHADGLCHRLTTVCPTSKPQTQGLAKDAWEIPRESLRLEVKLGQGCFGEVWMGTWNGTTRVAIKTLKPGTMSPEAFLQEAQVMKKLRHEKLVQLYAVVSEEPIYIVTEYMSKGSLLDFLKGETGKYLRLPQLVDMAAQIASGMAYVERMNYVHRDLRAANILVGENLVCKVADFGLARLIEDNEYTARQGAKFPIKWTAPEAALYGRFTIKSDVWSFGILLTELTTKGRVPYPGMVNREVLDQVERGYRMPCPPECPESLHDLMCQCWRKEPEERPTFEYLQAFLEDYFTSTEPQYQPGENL
Sequence of Calcium/calmodulin-dependent protein kinase kinase 2 (Homo sapiens) (Q96RR4 2-588 limits assumed): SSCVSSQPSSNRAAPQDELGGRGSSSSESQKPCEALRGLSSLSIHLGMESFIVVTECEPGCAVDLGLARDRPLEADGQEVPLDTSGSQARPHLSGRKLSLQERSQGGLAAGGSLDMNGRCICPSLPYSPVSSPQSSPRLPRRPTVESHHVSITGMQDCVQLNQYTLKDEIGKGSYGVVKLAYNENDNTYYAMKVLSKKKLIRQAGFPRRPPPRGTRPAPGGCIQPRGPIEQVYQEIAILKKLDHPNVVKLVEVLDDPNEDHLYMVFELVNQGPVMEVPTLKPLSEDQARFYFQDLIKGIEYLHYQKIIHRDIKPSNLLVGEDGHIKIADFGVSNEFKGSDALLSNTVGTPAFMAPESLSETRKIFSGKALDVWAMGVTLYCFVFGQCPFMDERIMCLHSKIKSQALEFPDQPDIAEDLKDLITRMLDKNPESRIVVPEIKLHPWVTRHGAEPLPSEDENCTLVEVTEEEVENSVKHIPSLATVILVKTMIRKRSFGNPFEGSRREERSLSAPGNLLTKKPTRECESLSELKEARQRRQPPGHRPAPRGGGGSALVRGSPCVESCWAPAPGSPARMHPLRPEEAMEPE

Row | Compound | Activity [1] [%] | Activity [2] [%] | Activity [3] [%] | Activity [4] [%] | Activity [5] [%] | Activity [6] [%] | Activity [7] [%] | Activity [8] [%] | Activity [9] [%] | Activity [10] [%] | Activity [11] [%]
1 | COc1cc2nc(C)nc(N[C@H](C)c3cccc(-c4cn[nH]c4)c3)c2cc1OC | 98 | 76 | 100 | 94 | 100 | 97 | 95 | 65 | 97 | 99 | 94
2 | COc1cc2ncnc(N[C@H](C)c3cccc4ccccc34)c2cc1OC | 94 | 26 | 94 | 95 | 92 | 93 | 88 | 92 | 96 | 100 | 100

Reference: ChEMBL document CHEMBL5678818, “Discovery of potent SOS1 inhibitors that block RAS activation via disruption of the RAS-SOS1 interaction” (Proc Natl Acad Sci U S A, 2019)
